What was measured:
Assay in all cases: relative viability (nuclei count vs DMSO), 5 days (fraction); higher = more cells survive
[1] = system: SK-MES-1
Method in brief: (§1)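 Relative viability is defined as nuclei in treated wells over nuclei in vehicle wells. Duplicate plates were run and medians reported. Lung cancer cell lines in 1536-well plates were dosed by pin tool one day after seeding, with one drug or with a fixed anchor-drug dose plus five library-drug doses (not always all listed) in √10 steps, and nuclei were counted after 5 days.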

[2] = system: UMC-11
Method in brief: as §1

[3] = system: RERF-LC-KJ
Method in brief: as §1

[4] = system: HOP-62
Method in brief: as §1

[5] = system: NCI-H1355
Method in brief: as §1

[6] = system: NCI-H2085
Method in brief: as §1

[7] = system: NCI-H650
Method in brief: as §1

[8] = system: LCLC-97TM1
Method in brief: as §1

[9] = system: NCI-H2170
Method in brief: as §1

[10] = system: NCI-H2023
Method in brief: as §1

[11] = system: NCI-H23
Method in brief: as §1

O=c1[nH]c2ccccc2n1C1CCN(CCCC(c2ccc(F)cc2)c2ccc(F)cc2)CC1 [Pimozide] + COc1cc2c(Oc3ccc(NC(=O)C4(C(=O)Nc5ccc(F)cc5)CC4)cc3F)ccnc2cc1OCCCN1CCOCC1 [Foretinib] (partner 0.25 µM)
relative viability ([1]; first compound 0.08 µM): 0.614
relative viability ([1]; first compound 0.253 µM): 0.955
relative viability ([1]; first compound 0.8 µM): 1.06
relative viability ([1]; first compound 2.53 µM): 1.06
relative viability ([1]; first compound 8 µM): 0.94
relative viability ([2]; first compound 0.08 µM): 1.05
relative viability ([2]; first compound 0.253 µM): 1.01
relative viability ([2]; first compound 0.8 µM): 1
relative viability ([2]; first compound 2.53 µM): 1.14
relative viability ([2]; first compound 8 µM): 1.07
relative viability ([3]; first compound 0.08 µM): 0.907
relative viability ([3]; first compound 0.253 µM): 0.844
relative viability ([3]; first compound 0.8 µM): 0.831
relative viability ([3]; first compound 2.53 µM): 0.821
relative viability ([3]; first compound 8 µM): 0.848
relative viability ([4]; first compound 0.08 µM): 1.05
relative viability ([4]; first compound 0.253 µM): 1.14
relative viability ([4]; first compound 2.53 µM): 1.04
relative viability ([4]; first compound 8 µM): 1.03
relative viability ([5]; first compound 0.08 µM): 0.808
relative viability ([5]; first compound 0.253 µM): 0.923
relative viability ([5]; first compound 0.8 µM): 0.888
relative viability ([5]; first compound 2.53 µM): 0.886
relative viability ([5]; first compound 8 µM): 1
relative viability ([6]; first compound 0.08 µM): 0.956
relative viability ([6]; first compound 0.253 µM): 0.899
relative viability ([6]; first compound 0.8 µM): 1.1
relative viability ([6]; first compound 2.53 µM): 0.909
relative viability ([6]; first compound 8 µM): 0.949
relative viability ([7]; first compound 0.08 µM): 1.07
relative viability ([7]; first compound 0.253 µM): 1.02
relative viability ([7]; first compound 0.8 µM): 1
relative viability ([7]; first compound 2.53 µM): 1.04
relative viability ([7]; first compound 8 µM): 1.04
relative viability ([8]; first compound 0.08 µM): 0.926
relative viability ([8]; first compound 0.253 µM): 1.03
relative viability ([8]; first compound 0.8 µM): 0.823
relative viability ([8]; first compound 2.53 µM): 0.852
relative viability ([8]; first compound 8 µM): 0.789
relative viability ([9]; first compound 0.08 µM): 1.04
relative viability ([9]; first compound 0.253 µM): 1.03
relative viability ([9]; first compound 0.8 µM): 0.985
relative viability ([9]; first compound 2.53 µM): 0.99
relative viability ([9]; first compound 8 µM): 1.06
relative viability ([10]; first compound 0.08 µM): 0.687
relative viability ([10]; first compound 0.253 µM): 0.916
relative viability ([10]; first compound 0.8 µM): 0.91
relative viability ([10]; first compound 2.53 µM): 0.705
relative viability ([10]; first compound 8 µM): 0.64
relative viability ([11]; first compound 0.08 µM): 0.676
relative viability ([11]; first compound 0.253 µM): 1.07
relative viability ([11]; first compound 0.8 µM): 0.833
relative viability ([11]; first compound 2.53 µM): 0.712
relative viability ([11]; first compound 8 µM): 0.829
